Measurements reported in PubChem BioAssay (NCI).
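Grown in 96-well plates, cells were treated for 48 hours with each compound at five concentrations. Insufficient inhibition: endpoint recorded as highest concentration tested. GI50: concentration for 50% inhibition of growth. TGI: total growth inhibition.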

What was measured:
Assay in all cases: growth of human tumour cells (NCI), 48 h
[1] = system: 786-0 renal
[2] = system: A498 renal
[3] = system: A549 NSCLC
[4] = system: ACHN renal
[5] = system: BT-549 breast
[6] = system: CAKI-1 renal
[7] = system: CCRF-CEM leukemia
[8] = system: COLO 205 colon
[9] = system: DU-145 prostate
[10] = system: HCC-2998 colon
[11] = system: HCT-116 colon
[12] = system: HCT-15 colon
[13] = system: HL-60(TB) leukemia
[14] = system: HOP-62 NSCLC
[15] = system: HOP-92 NSCLC
[16] = system: HS 578T breast
[17] = system: HT29 colon
[18] = system: IGROV1 ovarian
[19] = system: K-562 leukemia
[20] = system: KM12 colon
[21] = system: LOX IMVI melanoma
[22] = system: M14 melanoma
[23] = system: MALME-3M melanoma
[24] = system: MCF7 breast
[25] = system: MDA-MB-231 breast
[26] = system: MDA-MB-435
[27] = system: MOLT-4 leukemia
[28] = system: NCI-H226 lung
[29] = system: NCI-H23 lung
[30] = system: NCI-H460 lung
[31] = system: NCI-H522 lung
[32] = system: NCI/ADR-RES ovarian
[33] = system: OVCAR-3 ovarian
[34] = system: OVCAR-4 ovarian
[35] = system: OVCAR-5 ovarian
[36] = system: OVCAR-8 ovarian
[37] = system: PC-3 prostate
[38] = system: RPMI-8226 leukemia
[39] = system: SF-268 CNS
[40] = system: SF-295 CNS
[41] = system: SF-539 CNS
[42] = system: SK-MEL-2 melanoma
[43] = system: SK-MEL-28 melanoma
[44] = system: SK-MEL-5 melanoma
[45] = system: SK-OV-3 ovarian
[46] = system: SN12C renal
[47] = system: SNB-19 CNS
[48] = system: SNB-75 CNS
[49] = system: SR leukemia
[50] = system: SW-620 colon
[51] = system: T-47D breast
[52] = system: TK-10 renal
[53] = system: U251 CNS
[54] = system: UACC-257 melanoma
[55] = system: UACC-62 melanoma
[56] = system: UO-31 renal
[57] = system: EKVX NSCLC

## CCCCCn1c(=N)n(CC(O)COc2cccc(C)c2)c2ccccc21 (stereo not drawn)
[1]
  GI50: 7.74 µM
  TGI: 23.3 µM
[2]
  GI50: 1.49 µM
  TGI: 13 µM
[3]
  GI50: 10.2 µM
  TGI: 22.9 µM
[4]
  GI50: 8.85 µM
  TGI: 23.8 µM
[5]
  GI50: 9.22 µM
  TGI: 23.3 µM
[6]
  GI50: 6.95 µM
  TGI: 21.2 µM
[7]
  GI50: 3.12 µM
  TGI: 15.2 µM
[8]
  GI50: 1.93 µM
  TGI: 3.62 µM
[9]
  GI50: 11.4 µM
  TGI: 24 µM
[10]
  GI50: 2.1 µM
  TGI: 3.98 µM
[11]
  GI50: 3.03 µM
  TGI: 17.7 µM
[12]
  GI50: 4.93 µM
  TGI: 20.3 µM
[13]
  GI50: 2.15 µM
  TGI: 4.9 µM
[14]
  GI50: 12 µM
  TGI: 25.6 µM
[15]
  GI50: 2.74 µM
  TGI: 14.8 µM
[16]
  GI50: 5.5 µM
  TGI: 24.8 µM
[17]
  GI50: 2.73 µM
  TGI: 11.2 µM
[18]
  GI50: 4.45 µM
  TGI: 18 µM
[19]
  GI50: 2.76 µM
  TGI: 10.2 µM
[20]
  GI50: 4.02 µM
  TGI: 15.1 µM
[21]
  GI50: 3.25 µM
  TGI: 11.6 µM
[22]
  GI50: 3.26 µM
  TGI: 12.3 µM
[23]
  GI50: 2.39 µM
  TGI: 6.1 µM
[24]
  GI50: 2.85 µM
  TGI: 11.6 µM
[25]
  GI50: 5.39 µM
  TGI: 18.8 µM
[26]
  GI50: 3 µM
  TGI: 11.2 µM
[27]
  GI50: 3.08 µM
  TGI: 11.1 µM
[28]
  GI50: 10.3 µM
  TGI: 28 µM
[29]
  GI50: 6.87 µM
  TGI: 22.5 µM
[30]
  GI50: 4.62 µM
  TGI: 17.3 µM
[31]
  GI50: 5.7 µM
  TGI: 20 µM
[32]
  GI50: 10.5 µM
  TGI: 27.1 µM
[33]
  GI50: 8 µM
  TGI: 21.2 µM
[34]
  GI50: 3.67 µM
  TGI: 17.6 µM
[35]
  GI50: 9.82 µM
  TGI: 25.2 µM
[36]
  GI50: 2.11 µM
  TGI: 5.04 µM
[37]
  GI50: 4 µM
  TGI: 16.3 µM
[38]
  GI50: 2.09 µM
  TGI: 5.2 µM
[39]
  GI50: 10.7 µM
  TGI: 23.9 µM
[40]
  GI50: 5.62 µM
  TGI: 22.8 µM
[41]
  GI50: 11.7 µM
  TGI: 24.7 µM
[42]
  GI50: 5.68 µM
  TGI: 18.4 µM
[43]
  GI50: 3.95 µM
  TGI: 14.7 µM
[44]
  GI50: 2.75 µM
  TGI: 7.82 µM
[45]
  GI50: 11.8 µM
  TGI: 24.2 µM
[46]
  GI50: 5.41 µM
  TGI: 19 µM
[47]
  GI50: 12.3 µM
  TGI: 26.4 µM
[48]
  GI50: 2.65 µM
  TGI: 16.5 µM
[49]
  GI50: 2.02 µM
  TGI: 5.57 µM
[50]
  GI50: 4.26 µM
  TGI: 18.3 µM
[51]
  GI50: 3.33 µM
  TGI: 10.6 µM
[52]
  GI50: 10.2 µM
  TGI: 22.4 µM
[53]
  GI50: 2.11 µM
  TGI: 4.25 µM
[54]
  GI50: 3.36 µM
  TGI: 12 µM
[55]
  GI50: 4.85 µM
  TGI: 18.5 µM
[56]
  GI50: 4.03 µM
  TGI: 17.6 µM

## CC1(C)SC2C(NC(=O)C(N)c3ccccc3)C(=O)N2C1C(=O)O (stereo not drawn)
[1]
  TGI: > 100 µM
[3]
  TGI: > 100 µM
[4]
  TGI: > 100 µM
[5]
  TGI: > 100 µM
[6]
  TGI: > 100 µM
[7]
  TGI: > 100 µM
[8]
  TGI: > 100 µM
[9]
  TGI: > 100 µM
[57]
  TGI: > 100 µM
[10]
  TGI: > 100 µM
[11]
  TGI: > 100 µM
[12]
  TGI: > 100 µM
[13]
  TGI: > 100 µM
[14]
  TGI: > 100 µM
[15]
  TGI: > 100 µM
[16]
  TGI: > 100 µM
[17]
  TGI: > 100 µM
[18]
  TGI: > 100 µM
[20]
  TGI: > 100 µM
[21]
  TGI: > 100 µM
[22]
  TGI: > 100 µM
[24]
  TGI: > 100 µM
[25]
  TGI: > 100 µM
[26]
  TGI: > 100 µM
[27]
  TGI: > 100 µM
[29]
  TGI: > 100 µM
[30]
  TGI: > 100 µM
[31]
  TGI: > 100 µM
[32]
  TGI: > 100 µM
[33]
  TGI: > 100 µM
[35]
  TGI: > 100 µM
[36]
  TGI: > 100 µM
[37]
  TGI: > 100 µM
[38]
  TGI: > 100 µM
[39]
  TGI: > 100 µM
[40]
  TGI: > 100 µM
[41]
  TGI: > 100 µM
[42]
  TGI: > 100 µM
[43]
  TGI: > 100 µM
[44]
  TGI: > 100 µM
[46]
  TGI: > 100 µM
[47]
  TGI: > 100 µM
[48]
  TGI: > 100 µM
[49]
  TGI: > 100 µM
[50]
  TGI: > 100 µM
[51]
  TGI: > 100 µM
[52]
  TGI: > 100 µM
[53]
  TGI: > 100 µM
[54]
  TGI: > 100 µM
[55]
  TGI: > 100 µM
[56]
  TGI: > 100 µM
